{"source": "patent US8518995B2", "about": "“Methods and compositions for the treatment of irritable bowel syndrome” (MediciNova, Inc., priority 2010, dated 2013)", "key": {"[1]": {"test_system": "subjects suffering from IBS", "conditions": "including increase in the heart rate and finger tremors; cited from earlier work"}, "[2]": {"test_system": "subjects with the irritable bowel syndrome (IBS)", "conditions": "including increase in systolic blood pressure and the heart rate; cited from earlier work"}, "[3]": {"test_system": "subjects suffering from IBS", "experiment": "Effects of MN-221 on human esophageal peristalsis (manometry, heart rate, finger tremor) in IBS subjects", "type": "in vivo", "description": "This study investigates the inhibitory influence of beta-2-adrenergic stimulation by MN-221 on esophageal motility with little to no incidence of significant adverse side effects. In the study, esophageal peristalsis is studied in subjects suffering from IBS. The subjects have no history of gastrointestinal or cardiovascular disease. Subjects are considered to have the irritable bowel syndrome if they have an abdominal pain with or without diarrhea or constipation. Relief of pain by defecation, abdominal distension, a feeling of incomplete evacuation, and/or a response to a high-residue diet are taken as useful additional symptoms. The blood picture, erythrocyte sedimentation rate, and results of sigmoidoscopy, rectal biopsy, and barium enema are normal in all subjects. The symptoms of the subjects, including dysphagia and heartburn, are recorded on data sheets for correlation with manometric findings.\nEach subject is orally given MN-221, 5 mg three times daily, for 10 days. […] At each session esophageal peristaltic pressure, heart rate, and finger tremor are assessed.\nManometric studies are performed with a triple-lumen tube with each channel perfused with water, 0.5 ml/min, via a low-compliance capillary system. […] Thus, pressure is recorded about 18 cm proximal to the LES (proximal esophagus), about 10 cm proximal to the LES (middle esophagus), and about 2 cm proximal to the LES (distal esophagus).\nAfter a resting period of 20 min., esophageal peristalsis in response to 20 wet swallows (water bolus of 5 ml, room temperature) is recorded. […] Each recording curve is coded and read by one investigator who is not aware of the subject's study day. The amplitude of the peristaltic pressure waves is measured at each recording point, and an individual mean value for the 20 swallows is calculated for each examination.\nAt each session, heart rate is recorded in the resting subject and calculated as a mean value for 2 min. Finger tremor are assessed with an optical method (e.g., Opto-Tremor Graph, Draco), and the middle finger of the right hand is chosen for measurement. […]"}, "[4]": {"test_system": "subjects with the irritable bowel syndrome (IBS)", "experiment": "Effects of MN-221 on rectosigmoid motility (intraluminal pressure, systemic effects, plasma levels) in IBS subjects", "type": "in vivo, human", "description": "In this study, subjects with the irritable bowel syndrome (IBS) are studied with regard to the effects of MN-221 on rectosigmoid motility.\nMen and women aged 24-52 years are included in the study. The diagnosis of IBS is made on the basis of the following criteria: 1) symptoms lasting more than few months; 2) abdominal pain with or without relation to meals; 3) constipation or a combination of diarrhea and constipation; 4) normal colonic barium enema and sigmoidoscopy; 5) negative test for lactose intolerance; and 6) negative finding on stool culture.\nThe subjects are all symptomatic at the time of the study. The subjects are taking no medications of significant importance for intestinal motility. Informed consent is obtained from each subject.\nAfter a 12 hours fast, all subjects undergo sigmoidoscopy without air insufflations. A probe with one to three polyethylene catheters is inserted through the sigmoidoscope so that the proximal catheter is about 18-20 centimeter (cm) from the anal margin, the tip of the second catheter about 5 cm below, and the third catheter is positioned just inside the internal sphincter. An about 5-cm-long balloon surrounds each of the two distal catheters. The distal balloon is inflated with about 20 milliliter (mL) of air to prevent the device from moving in the distal direction. The balloon in the upper rectum, connected to the middle catheter, is kept inflated with about 80 ml of air in 10 of the subjects and with about 60 mL in the other 2 subjects throughout the recording sessions. Each subject has the same balloon volume during the three examinations.\nIntra-luminal pressure is measured from the proximal rectal balloon and the sigmoid catheter (inside diameter, about 1.67 millimeter (mm)), which is open tipped with a side orifice of about 1.5 mm diameter.\nThe catheter is continuously perfused with body-temperature water at 3.5 mL/h by means of an infusion pump. Pressure is transmitted to transducers (e.g., Statham P 23 Db, Statham Instruments, Hato Ray, Puerto Rico) and recorded on a Grass RPS 7C polygraph (e.g., Grass Instrument Co., Quincy, Mass.). To determine motility, the area under the pressure curves is continuously determined by integrators (such as, e.g., Grass 7P 10). As an index of contractile activity, the total area minus the area under an estimated basal pressure line is used. The principle for motility calculation is described in detail in Abrahamsson et al. Dig Dis Sci 1983, 28, 590-594.\nMotility index is expressed as kPa×min (1 kPa×min=7.5 mm Hg×min). The study is randomized and double blinded. Each subject is investigated on 3 different days with not less than 5 days between each investigation to avoid any possible influence of an earlier drug infusion. After an initial rest period of 30 minutes (min), pressure is quantified for three periods of 25 min. The first period, designated the control period, is preceded by saline infusion, 1 mL/min, for 5 min. The following two test periods are each preceded by an infusion of 0.25 mg MN-221 intravenously to a total amount of 0.50 mg on the 1st day, 1.0 mg on the 2nd day, and 5 ml placebo (plus 5 mL saline) on the 3rd day.\nThe blood pressure and heart rate are measured by a sphygmomanometer 10 and 25 min after the end of each drug infusion. […]\nResults are expressed as the mean±SEM. […]\nThe plasma concentration of MN-221 is determined by liquid chromatography and mass spectrometry."}, "[5]": {"conditions": "during oral medication, 5 mg three times daily, 10 days"}}}
{"smiles": "CC(C)(C)NCC(O)c1cc(O)cc(O)c1", "note": "(stereo not shown) [terbutaline]", "values": [{"measurement": "adverse side effects (comparison drug)", "setting": "[1]", "value": "undesirable incidence of significant adverse side effects"}, {"measurement": "adverse side effects (comparison drug)", "setting": "[2]", "value": "undesirable incidence of significant adverse side effects"}]}
{"smiles": "CN(C)C(=O)COc1ccc2c(c1)CC(NCC(O)c1ccc(O)c(CCO)c1)CC2", "note": "(single isomer, unassigned; (-)) [MN-221]", "values": [{"measurement": "finger tremor", "setting": "[3]; [5]", "value": "do not change"}, {"measurement": "heart rate", "setting": "[3]; [5]", "value": "do not change"}, {"measurement": "adverse side effects", "setting": "[3]; oral medication, IBS subjects", "value": "little to no adverse side effects"}, {"measurement": "complaints or discomfort among the subjects", "setting": "[4]; after infusion of MN-221", "value": "No major complaints or discomfort"}, {"measurement": "plasma concentrations", "setting": "[4]; after intravenous infusion, 0.50 and 1.0 mg total", "value": "within the therapeutic levels"}, {"measurement": "systolic and diastolic blood pressure and heart rate", "setting": "[4]; infusion to a total of 0.50 mg intravenously", "value": "no significant increase in the systolic blood pressure; decrease in the diastolic blood pressure; and/or increase in the heart rate"}, {"measurement": "systolic and diastolic blood pressure and heart rate", "setting": "[4]; infusion to a total of 1.0 mg intravenously", "value": "no significant increase in systolic blood pressure; decrease in diastolic blood pressure; and/or increase in heart rate"}, {"measurement": "adverse side effects", "setting": "[4]; intravenous infusion, IBS subjects", "value": "little to no adverse side effects"}]}
